This is an account of results in article PMC11922053 (Science Advances, 2025).

The target of the series is chymotrypsin (Bos taurus, UniProt P00766). Description: Protease stability assay with chymotrypsin. The class given is in vitro ADME. The settings on record: NCBP-4 versus CBP; 50:1 by mass, up to 30 min, LC-MS.

Where a SMILES comes first, the peptide text is derived from it. Bridges are numbered along the chain shown (N, C = ends). [ ]: non-standard residue; d: D form. The star is where a group is joined. Biotin = O=C1N[C@H]2[C@H](CS[C@H]2CCCCC(=O)*)N1; 2Nal = N[C@@H](Cc1ccc2ccccc2c1)C(=O)O; Gly(cPent) = N[C@H](C(=O)O)C1CCCC1; Hyp = O=C(O)[C@@H]1C[C@@H](O)CN1; Pen = CC(C)(S)[C@H](N)C(=O)O; Api = NC1(C(=O)O)CCNCC1; Ahx = NCCCCCC(=O)O

In the case of `CC1(C)SSC[C@H](NC(=O)[C@H](Cc2ccccc2)NC(=O)[C@@H](NC(=O)[C@H](Cc2ccccc2)NC(=O)C2(NC(=O)[C@H](Cc3ccc4ccccc4c3)NC(=O)[C@H](CCCCN)NC(=O)CCCCCNC(=O)[C@@H](N)CCCCNC(=O)CCCC[C@@H]3SC[C@@H]4NC(=O)N[C@@H]43)CCNCC2)C2CCCC2)C(=O)N2C[C@H](O)C[C@H]2C(=O)N[C@@H](Cc2ccccc2)C(=O)N[C@@H](Cc2ccc(O)cc2)C(=O)N[C@@H](Cc2ccc(O)cc2)C(=O)N[C@@H](CCCCN)C(=O)N2C[C@H](O)C[C@H]2C(=O)N[C@@H]1C(=O)N[C@@H](CCCCN)C(N)=O` [NCBP-4] (H-K(Biotin)[Ahx]K[2Nal][Api]F[Gly(cPent)]FC[Hyp]FYYK[Hyp][Pen]K-NH2; disulfide 9-16; N-terminus assumed), the “fold increase in half-life with chymotrypsin relative to CBP” value was 40 fold.
